Laboratory results published in patent publication US8058311B2, “Imaging 18F or 11C-labelled alkylthiophenyl guanidines” (Hammersmith Imanet Limited, priority 2005, dated 2011).

Assay: Biodistribution: radioactivity in rat peripheral organs and body fluids after intravenous injection
Format: in vivo
Description: N-(2-Chloro-5-(2-[^18F]fluoro-ethylthio))-phenyl-N′-(3-methylthio)-phenyl-N′-methylguanidine was prepared according to Example 4 (synthesis formulation ˜3% ethanol in 0.9% w/v saline solution) with a radiochemical purity of ˜99% and, at time of injection, the specific activity ranged from 4-16 GBq/nmol^−1. Biodistribution and blood data were from 11 adult male Sprague-Dawley rats (body weight range, 269 to 329 g; mean±S.E.=300±18 g). N-(2-Chloro-5-(2-[^18F]fluoro-ethylthio))-phenyl-N′-(3-methylthio)-phenyl-N′-methylguanidine was injected directly into the tail vein of each rat whilst under isoflurane anaesthesia. Each animal was then allowed to recover from anaesthesia. At designated times after injection, rats were sacrificed by cervical dislocation under anaesthesia and brain and body tissues were rapidly sampled.
The data were acquired using two syntheses. Rats were given an average of 86 MBq (85.3 MBq for first experimental day and 87.3 MBq for the second experimental day), in a volume of 0.20 ml (synthesis formulation ˜3% alcohol), via direct intravenous injection through the tail vein. The mass of co-injected N-(2-Chloro-5-(2-[^18F]fluoro-ethylthio))-phenyl-N′-(3-methylthio)-phenyl-N′-methylguanidine ranged from 0.7-2.9 nmol.kg^−1. Details of the methodology, together with processing and counting of the samples can be found in Hume et al., Nucl. Med. Biol. (1991) 18: 339-351. Data were normalised for injected radioactivity and body weight, giving: ‘uptake units’=(cpm.g^−1 wet weight tissue)·(injected cpm.g^−1 body weight)^−1 Results
Radioactivity concentration data are additionally collated in Tables 1 (peripheral tissue) and 2 (brain). As metabolite studies were not carried out, the proportion of the total radioactivity reflecting label associated with parent N-(2-Chloro-5-(2-[^18F]fluoro-ethylthio))-phenyl-N′-(3-methylthio)-phenyl-N′-methylguanidine is not known. Note, Blood and plasma samples were collected post-mortem from the heart ventricle.

## CSc1cccc(N(C)C(=N)Nc2cc(SCC[18F])ccc2Cl)c1 [N-(2-Chloro-5-(2-[^18F]fluoro-ethylthio))-phenyl-N′-(3-methylthio)-phenyl-N′-methylguanidine]
  peripheral clearance route: via kidney to urine and via the intestine
2 min, n = 1
  radioactivity in bone: 1.355 uptake units
  radioactivity in fat: 0.199 uptake units
  radioactivity in heart (ventricle): 6.412 uptake units
  radioactivity in kidney: 12.975 uptake units
  radioactivity in large intestinal content: 0.113 uptake units
  radioactivity in large intestine: 3.338 uptake units
  radioactivity in liver: 5.251 uptake units
  radioactivity in lung: 32.475 uptake units
  radioactivity in skeletal muscle: 0.288 uptake units
  radioactivity in skin: 0.338 uptake units
  radioactivity in small intestinal content: 1.390 uptake units
  radioactivity in small intestine: 4.537 uptake units
  radioactivity in spleen: 3.985 uptake units
  radioactivity in stomach: 0.843 uptake units
  radioactivity in testis: 0.456 uptake units
  radioactivity in urine: 0.109 uptake units
5 min, n = 1
  radioactivity in bone: 1.440 uptake units
  radioactivity in fat: 0.814 uptake units
  radioactivity in heart (ventricle): 2.761 uptake units
  radioactivity in kidney: 10.113 uptake units
  radioactivity in large intestinal content: 0.148 uptake units
  radioactivity in large intestine: 3.442 uptake units
  radioactivity in liver: 5.648 uptake units
  radioactivity in lung: 25.015 uptake units
  radioactivity in skeletal muscle: 0.517 uptake units
  radioactivity in skin: 0.517 uptake units
  radioactivity in small intestinal content: 1.449 uptake units
  radioactivity in small intestine: 3.845 uptake units
  radioactivity in spleen: 3.676 uptake units
  radioactivity in stomach: 1.245 uptake units
  radioactivity in testis: 0.528 uptake units
  radioactivity in urine: 16.760 uptake units
10 min, n = 2
  radioactivity in bone: 0.793 uptake units
  radioactivity in fat: 0.234 uptake units
  radioactivity in heart (ventricle): 1.119 uptake units
  radioactivity in kidney: 3.931 uptake units
  radioactivity in large intestinal content: 0.109 uptake units
  radioactivity in large intestine: 1.359 uptake units
  radioactivity in liver: 3.199 uptake units
  radioactivity in lung: 10.229 uptake units
  radioactivity in skeletal muscle: 0.391 uptake units
  radioactivity in skin: 0.248 uptake units
  radioactivity in small intestinal content: 1.162 uptake units
  radioactivity in small intestine: 1.618 uptake units
  radioactivity in spleen: 3.008 uptake units
  radioactivity in stomach: 0.532 uptake units
  radioactivity in testis: 0.363 uptake units
  radioactivity in urine: 13.589 uptake units
30 min, n = 3
  radioactivity in bone: 1.014 ± 0.019 uptake units
  radioactivity in fat: 0.613 ± 0.175 uptake units
  radioactivity in heart (ventricle): 0.740 ± 0.019 uptake units
  radioactivity in kidney: 3.287 ± 0.208 uptake units
  radioactivity in large intestinal content: 0.445 ± 0.035 uptake units
  radioactivity in large intestine: 1.619 ± 0.494 uptake units
  radioactivity in liver: 6.023 ± 0.699 uptake units
  radioactivity in lung: 3.786 ± 0.292 uptake units
  radioactivity in skeletal muscle: 0.487 ± 0.036 uptake units
  radioactivity in skin: 0.491 ± 0.019 uptake units
  radioactivity in small intestinal content: 6.002 ± 3.338 uptake units
  radioactivity in small intestine: 2.241 ± 0.617 uptake units
  radioactivity in spleen: 2.713 ± 0.086 uptake units
  radioactivity in stomach: 1.558 ± 0.443 uptake units
  radioactivity in testis: 0.619 ± 0.081 uptake units
  radioactivity in urine: 49.593 ± 30.733 uptake units
60 min, n = 3
  radioactivity in bone: 0.944 ± 0.305 uptake units
  radioactivity in fat: 0.405 ± 0.358 uptake units
  radioactivity in heart (ventricle): 0.505 ± 0.104 uptake units
  radioactivity in kidney: 2.429 ± 0.527 uptake units
  radioactivity in large intestinal content: 1.176 ± 1.109 uptake units
  radioactivity in large intestine: 7.291 ± 10.308 uptake units
  radioactivity in liver: 3.659 ± 0.822 uptake units
  radioactivity in lung: 2.387 ± 0.195 uptake units
  radioactivity in skeletal muscle: 0.410 ± 0.096 uptake units
  radioactivity in skin: 0.435 ± 0.109 uptake units
  radioactivity in small intestinal content: 10.518 ± 7.766 uptake units
  radioactivity in small intestine: 1.841 ± 0.678 uptake units
  radioactivity in spleen: 1.675 ± 0.135 uptake units
  radioactivity in stomach: 1.227 ± 0.351 uptake units
  radioactivity in testis: 0.605 ± 0.150 uptake units
  radioactivity in urine: 23.375 ± 18.208 uptake units
90 min, n = 1
  radioactivity in bone: 0.889 uptake units
  radioactivity in fat: 0.548 uptake units
  radioactivity in heart (ventricle): 0.464 uptake units
  radioactivity in kidney: 2.127 uptake units
  radioactivity in large intestinal content: 0.764 uptake units
  radioactivity in large intestine: 0.775 uptake units
  radioactivity in liver: 2.856 uptake units
  radioactivity in lung: 2.150 uptake units
  radioactivity in skeletal muscle: 0.357 uptake units
  radioactivity in skin: 0.387 uptake units
  radioactivity in small intestinal content: 8.700 uptake units
  radioactivity in small intestine: 1.942 uptake units
  radioactivity in spleen: 1.418 uptake units
  radioactivity in stomach: 1.103 uptake units
  radioactivity in testis: 0.559 uptake units
  radioactivity in urine: 26.947 uptake units
90 minutes
  de-fluorination (from bone uptake): no evidence of de-fluorination
At 90 minutes
  uptake in lung: 2 uptake units
initial
  initial uptake in bone: 1.4
  initial uptake in lung: ~30 uptake units
low, retained over the course of the experiment
  initial content in skeletal muscle, skin and testis: ~0.4 uptake units
Over the 90 minutes of the experiment
  uptake in bone after decrease: ~0.8
